In PubChem BioAssay (NCI):
“And” between values parts separate entries of the source, which are not always exact repeats. Equal entries are not always repeated.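 A five-concentration, 48-hour dose response in 96-well plates underlies each endpoint, interpolated linearly between surrounding concentrations. At the GI50, growth is halved. TGI denotes the concentration required for complete inhibition of growth.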

System: MDA-MB-468 breast
Assay: NCI-60 cell line screen, 48 h

| SMILES | GI50 | TGI |
| --- | --- | --- |
| Cc1ccc(S(=O)(=O)n2cc(C(=O)C(=O)Nc3ccncc3)c3ccccc32)cc1 | 1100 nM | 9.53 µM |
| Cc1ccc(NC(=O)c2ccnc(N3CCCC3)c2)cc1-c1ccc(C(=O)NCC2CC2)cc1 | > 25000 nM | > 25 µM |
| Cc1ccc(C(=O)NC2CCCCC2)cc1-c1ccc(C(=O)NCC2CC2)cc1 | > 23600 nM | > 25 µM |
| O=C(O)CCC1CCC(c2cc(F)ccc2F)(S(=O)(=O)c2ccc(Cl)cc2)CC1 (stereo unspecified) | 13100 nM and 45300 nM | 52.5 µM and > 100 µM |
| CO[C@H](C(=O)N[C@@H](CCCCNC(=O)OCc1ccccc1)C(=O)OC(C)(C)C)[C@@H]1Cc2cc3cc(OC4CC(OC5CC(O)C(O)C(C)O5)C(O)C(C)O4)c(C)c(O)c3c(O)c2C(=O)[C@H]1OC1CC(OC2CC(OC3CC(C)(O)C(O)C(C)O3)C(O)C(C)O2)C(O)C(C)O1 (stereo partly specified) | 764 nM | 2.92 µM |
| CC/C(=C(\CC)c1ccc(OCCN(CC)CC)cc1)c1ccc(OCCN(CC)CC)cc1 | 1590 nM | 3.64 µM |
| O=C1/C(=C/c2ccc(Cl)cc2)CN(C(=O)C(Cl)Cl)C/C1=C\c1ccc(Cl)cc1 | 182 nM | 0.376 µM |
| CN1CCN(Cc2ccc(Nc3ncc(Cl)c(Nc4ccccc4S(=O)(=O)N(C)C)n3)cc2)CC1 | 52.5 nM | 0.268 µM |
| CCCCCCCCCCCCCCCCOCCCOP(=O)(O)C1CCCN(O)C1=O (stereo unspecified) | 2570 nM | 9.93 µM |
| O=C1/C(=C/C(Cl)=C/c2ccccc2)SC(=S)N1CCc1ccc(O)cc1 | 1890 nM | 6.04 µM |
| COc1cc(C(=O)n2nc(N3CCN(C)CC3)c3cc(N)ccc32)cc(OC)c1OC | 2970 nM | 9.38 µM |
| Cn1cc(C2=C(c3c4n(c5ccccc35)CCC(CN)CC4)C(=O)NC2=O)c2ccccc21 (stereo unspecified) | 3720 nM | 7.51 µM |
| CCNc1nc(N2CC(=O)Nc3cc(OC)ccc32)c2ccccc2n1 | 0.26 nM |  |
| COC(=O)[C@@H](C)C[C@H](Cc1ccccc1)NC(=O)c1csc([C@@H](C[C@H](C(C)C)N(C)C(=O)[C@@H](NC(=O)[C@H]2CCCCN2C)C(C)C)OC(C)=O)n1 |  | > 25 µM |
| COc1cnc2c(c1)C(=O)c1c-2n(CCCN2CCN(C)CC2)c(=O)c2cc(Cl)ccc12 | 1190 nM | 14.8 µM |
| COc1cccc2c1c1nc3cc(C)c(C)cc3nc1n2CCN(C)C | 1540 nM | 4.14 µM |
| O=C(Cn1ccnc1[N+](=O)[O-])NCC(F)(F)C(F)(F)F | > 100000 nM | > 100 µM |
| C/C(=C\c1ccn(-c2ccc(N)cc2)n1)[C@@H]1C[C@@H]2O[C@]2(C)CCC[C@H](C)[C@H](O)[C@@H](C)C(=O)C(C)(C)[C@@H](O)CC(=O)O1 | 39.1 nM | 1.19 µM |
| COc1ccc(Nc2ccnc(NCCCNc3ccnc4cc(Cl)ccc34)n2)cc1 | 871 nM | 2.42 µM |
| Cc1cccc(N=C2c3cc([N+](=O)[O-])ccc3-c3c2cc([N+](=O)[O-])cc3[N+](=O)[O-])c1 | 1670 nM | 3.32 µM |

| SMILES | GI50 | TGI |
| --- | --- | --- |
| COC(=O)Nc1nc2ccc(Oc3ccc(NC(=O)Nc4cccc(Cl)c4)cc3)cc2[nH]1 | 269 nM | 2.2 µM |
| C=C[C@]1(C)C=C2C(=O)[C@@]3(O)OC(=O)[C@@]4(CCCC(C)(C)[C@H]34)[C@@]2(O)CC1 | 414 nM | 2 µM |
| COc1ccc(-c2nc(-c3nc4cc(C)c(C)cc4[nH]3)cc3c2[nH]c2ccccc23)cc1 | 1990 nM | 4.78 µM |
| CN1CCN(Cc2ccc(NC(=O)c3cncc(C#Cc4c(N)ncc5cc(F)ccc45)c3)cc2C(F)(F)F)CC1 | 6300 nM | 15.4 µM |
| CN(C)CC1CCn2c(c(C3=C(c4cn(C)c5ccccc45)C(=O)NC3=O)c3ccccc32)C1 (stereo unspecified) | 3510 nM | 7.57 µM |
| Cc1ccc2sc3c(NCCCNCCO)nc4ccccc4c3c(=O)c2c1 | 1540 nM | 3.16 µM |
| CC[C@H](C)C(=O)O[C@H]1CCC=C2C=C[C@H](C)C(CCC3C[C@@H](O)CC(=O)O3)[C@H]21 (stereo partly specified) | 5850 nM | 30.8 µM |
| NC(=O)Oc1cc(OC(N)=O)cc(N(CCCl)CCCl)c1 | 1710 nM | 13 µM |
| CO[C@H]1CC[C@@]2(C)C(=CC[C@H]3[C@@H]4C[C@H](O)C[C@@]4(C)CC[C@@H]32)C1 | 2410 nM | 9.07 µM |
| O=C(Nc1ccc(Br)c(Cl)c1)c1cc(F)ccc1O | 942 nM | 3.35 µM |
| [N-]=[N+]=CC(=O)OCC(N)C(=O)O (stereo unspecified) | 1210 nM | 11.1 µM |
| C#C[C@@]1(O)[C@@H](CO)O[C@@H](n2cc(F)c3c(N)ncnc32)[C@@H]1O | 301 nM | 1.53 µM |
| CCCCCc1ccc(S(=O)(=O)Nc2cc(-c3csc(NC(=O)CN4CCN(C)CC4)n3)ccc2N2CCN(C)CC2)cc1 | 901 nM | 2.02 µM |
| COc1ccc(F)cc1C(=O)c1cnc(NC2CCN(S(C)(=O)=O)CC2)nc1N | 3950 nM | 9.87 µM |
| CCN1CCN(S(=O)(=O)c2oc(-c3ccc(Cl)cc3)nc2C#N)CC1 | 2210 nM | 5.16 µM |
| COc1cc2c3c(n(C4CCNCC4)c(=O)c2cc1OC)-c1cc2c(cc1C3=O)OCO2 | 455 nM | 1.85 µM |
| Clc1ccc(CO/N=C(\Cn2ccnc2)c2ccc(Cl)cc2Cl)c(Cl)c1 | 1590 nM | 3.06 µM |
| COC(=O)c1c2c(c(C)[n+]([O-])c1C)C(=O)C(NCc1ccc(F)c(F)c1)=CC2=O | 1160 nM | 3.07 µM |
| CCOC(=O)c1c(Cl)c2c(n1Cc1cc(OC)cc(OC)c1)-c1oncc1CCC2 | 526 nM | > 100 µM |
